Measurements reported in publication PMC10734772 (Turkish Journal of Chemistry, 2021).

Experiments:
Assay type in all cases: cell-based
Jurkat = assay: MTT assay, Jurkat cells; conditions: Homo sapiens, 24 h, read-out: Viability rate
Reh = assay: MTT assay, Reh cells; conditions: Homo sapiens, 24 h, read-out: Viability rate
[1] = system: K562, Nalm-6, Molt-4, Reh, Jurkat, Hek293T cell lines; assay: MTT assay, overall judgement over all cell lines; conditions: overall judgement in words; for 6 and 10: on all cell lines, except Reh
In short: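 MTT viability assay run across a range of compound concentrations in leukemic lines, BCR-ABL positive K562 and BCR-ABL negative Nalm-6, Molt-4, Reh, Jurkat, plus non-leukemic Hek293T. Viability rate calculated per concentration.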

[2] = MTT assay, Hek293T non-leukemic control cells; conditions: human, read-out: Viability rate
K562 = assay: MTT assay, K562 cells; conditions: Homo sapiens, 24 h, MTT, read-out: Viability rate
Nalm-6 = assay: MTT assay, Nalm-6 cells; conditions: Homo sapiens, 24 h, MTT, read-out: Viability rate
Molt-4 = assay: MTT assay, Molt-4 cells; conditions: Homo sapiens, MOLT-4, 24 h, read-out: Viability rate

Cc1ccnc(Nc2cc(NC(=O)c3ccc(CN4CCOCC4)cc3)ccc2C)n1 [Compound 8, N-(4-Methyl-3-((4-methylpyrimidin-2-yl)amino)phenyl)-4-(morhpolinomethyl)benzamide]
viability at 0.3 µM (Jurkat; 0.3 μM): 81.7 ± 0.08% | viability at 0.5 µM (Jurkat; 0.5 μM): 78.7 ± 0.03% | viability at 1 µM (Jurkat; 1 μM): 75.8 ± 0.04% | viability at 3 µM (Jurkat; 3 μM): 76.8 ± 0.04% | viability at 5 µM (Jurkat; 5 μM): 78.8 ± 0.02% | viability at 10 µM (Jurkat; 10 μM): 78.5 ± 0.05% | viability at 15 µM (Jurkat; 15 μM): 77.6 ± 0.05% | viability at 20 µM (Jurkat; 20 μM): 77.6 ± 0.04% | viability at 30 µM (Jurkat; 30 μM): 66.1 ± 0.07% | viability at 50 µM (Jurkat; 50 μM): 65.4 ± 0.03% | viability at 70 µM (Jurkat; 70 μM): 65.3 ± 0.04% | viability at 100 µM (Jurkat; 100 μM): 63 ± 0.02% | viability at 150 µM (Jurkat; 150 μM): 62.4 ± 0.08% | viability at 200 µM (Jurkat; 200 μM): 62.3 ± 0.05% | viability at 0.3 µM (Reh; 0.3 μM): 100.8 ± 0.03% | viability at 0.5 µM (Reh; 0.5 μM): 102.4 ± 0.02% | viability at 1 µM (Reh; 1 μM): 102 ± 0.01% | viability at 3 µM (Reh; 3 μM): 104.8 ± 0.02% | viability at 5 µM (Reh; 5 μM): 103.5 ± 0.01% | viability at 10 µM (Reh; 10 μM): 103.1 ± 0.01% | viability at 15 µM (Reh; 15 μM): 100.3 ± 0.01% | viability at 20 µM (Reh; 20 μM): 100.6 ± 0.02% | viability at 30 µM (Reh; 30 μM): 102.4 ± 0.04% | viability at 50 µM (Reh; 50 μM): 99.4 ± 0.02% | viability at 70 µM (Reh; 70 μM): 94.2 ± 0.03% | viability at 100 µM (Reh; 100 μM): 91.1 ± 0.01% | viability at 150 µM (Reh; 150 μM): 91.1 ± 0.02% | viability at 200 µM (Reh; 200 μM): 91.2 ± 0.04% | anticancer activity according to MTT assay results [1]: relatively lower activity | viability at 24 h, 0.3 µM ([2]; Hek293T cells (non-leukemic control cell line), 0.3 μM): 95.7 ± 0.03% | viability at 24 h, 0.5 µM ([2]; Hek293T cells (non-leukemic control cell line), 0.5 μM): 94.8 ± 0.07% | viability at 24 h, 3 µM ([2]; Hek293T cells (non-leukemic control cell line), 3 μM): 92.9 ± 0.04% | viability at 24 h, 5 µM ([2]; Hek293T cells (non-leukemic control cell line), 5 μM): 91.2 ± 0.09% | viability at 24 h, 10 µM ([2]; Hek293T cells (non-leukemic control cell line), 10 μM): 90.8 ± 0.05% | viability at 24 h, 15 µM ([2]; Hek293T cells (non-leukemic control cell line), 15 μM): 90.1 ± 0.07% | viability at 24 h, 20 µM ([2]; Hek293T cells (non-leukemic control cell line), 20 μM): 90 ± 0.04% | viability at 24 h, 30 µM ([2]; Hek293T cells (non-leukemic control cell line), 30 μM): 84.9 ± 0.04% | viability at 24 h, 50 µM ([2]; Hek293T cells (non-leukemic control cell line), 50 μM): 81.3 ± 0.02% | viability at 24 h, 70 µM ([2]; Hek293T cells (non-leukemic control cell line), 70 μM): 66.9 ± 0.02% | viability at 24 h, 100 µM ([2]; Hek293T cells (non-leukemic control cell line), 100 μM): 66.4 ± 0.03% | viability at 24 h, 150 µM ([2]; Hek293T cells (non-leukemic control cell line), 150 μM): 59.4 ± 0.01% | viability at 24 h, 200 µM ([2]; Hek293T cells (non-leukemic control cell line), 200 μM): 58.2 ± 0.01% | viability at 24 h, 1 µM ([2]; Hek293T cells, 1 μM): 94.3 ± 0.06% | viability at 0.3 µM (K562; K562, 0.3 μM): 86.2 ± 0.09% | viability at 0.5 µM (K562; K562, 0.5 μM): 85.3 ± 0.03% | viability at 1 µM (K562; K562, 1 μM): 84.7 ± 0.05% | viability at 3 µM (K562; K562, 3 μM): 84.7 ± 0.06% | viability at 5 µM (K562; K562, 5 μM): 76.8 ± 0.11% | viability at 10 µM (K562; K562, 10 μM): 76.7 ± 0.05% | viability at 15 µM (K562; K562, 15 μM): 76.7 ± 0.08% | viability at 20 µM (K562; K562, 20 μM): 76.6 ± 0.04% | viability at 30 µM (K562; K562, 30 μM): 75.6 ± 0.09% | viability at 50 µM (K562; K562, 50 μM): 72.5 ± 0.07% | viability at 70 µM (K562; K562, 70 μM): 72.6 ± 0.08% | viability at 100 µM (K562; K562, 100 μM): 66.4 ± 0.02% | viability at 150 µM (K562; K562, 150 μM): 65.3 ± 0.06% | viability at 200 µM (K562; K562, 200 μM): 65.2 ± 0.06% | viability at 0.3 µM (Nalm-6; Nalm-6, 0.3 μM): 102.8 ± 0.04% | viability at 0.5 µM (Nalm-6; Nalm-6, 0.5 μM): 101.8 ± 0.04% | viability at 1 µM (Nalm-6; Nalm-6, 1 μM): 102.7 ± 0.02% | viability at 3 µM (Nalm-6; Nalm-6, 3 μM): 99.6 ± 0.04% | viability at 5 µM (Nalm-6; Nalm-6, 5 μM): 102.5 ± 0.02% | viability at 10 µM (Nalm-6; Nalm-6, 10 μM): 100.6 ± 0.03% | viability at 15 µM (Nalm-6; Nalm-6, 15 μM): 100 ± 0.03% | viability at 20 µM (Nalm-6; Nalm-6, 20 μM): 94.2 ± 0.07% | viability at 30 µM (Nalm-6; Nalm-6, 30 μM): 95.9 ± 0.07% | viability at 50 µM (Nalm-6; Nalm-6, 50 μM): 91.9 ± 0.06% | viability at 70 µM (Nalm-6; Nalm-6, 70 μM): 87.7 ± 0.02% | viability at 100 µM (Nalm-6; Nalm-6, 100 μM): 87.4 ± 0.02% | viability at 150 µM (Nalm-6; Nalm-6, 150 μM): 81.3 ± 0.02% | viability at 200 µM (Nalm-6; Nalm-6, 200 μM): 70.8 ± 0.01% | viability at 0.3 µM (Molt-4; Molt-4, 0.3 μM): 98.5 ± 0.09% | viability at 0.5 µM (Molt-4; Molt-4, 0.5 μM): 98.5 ± 0.11% | viability at 1 µM (Molt-4; Molt-4, 1 μM): 95.4 ± 0.11% | viability at 3 µM (Molt-4; Molt-4, 3 μM): 89.2 ± 0.07% | viability at 5 µM (Molt-4; Molt-4, 5 μM): 90.7 ± 0.07% | viability at 10 µM (Molt-4; Molt-4, 10 μM): 90.4 ± 0.07% | viability at 15 µM (Molt-4; Molt-4, 15 μM): 90.8 ± 0.05% | viability at 20 µM (Molt-4; Molt-4, 20 μM): 88.3 ± 0.04% | viability at 30 µM (Molt-4; Molt-4, 30 μM): 85.8 ± 0.04% | viability at 50 µM (Molt-4; Molt-4, 50 μM): 83.6 ± 0.02% | viability at 70 µM (Molt-4; Molt-4, 70 μM): 82.6 ± 0.09% | viability at 100 µM (Molt-4; Molt-4, 100 μM): 81.5 ± 0.09% | viability at 150 µM (Molt-4; Molt-4, 150 μM): 78.9 ± 0.05% | viability at 200 µM (Molt-4; Molt-4, 200 μM): 78.8 ± 0.07%
